Tests used:
Test in all cases: relative viability (nuclei count vs DMSO), 5 days (fraction); higher = more cells survive
NCI-H1651 = test system: NCI-H1651
Summary of the method: (§1)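 Medians of duplicate plates are given as relative viability. That measure is the nuclei count in treated wells divided by the count in vehicle wells. Counts were taken on 4× images of lung cancer cell lines in 1536-well plates, 5 days after pin-tool dosing the day after seeding with one drug alone or a fixed anchor-drug dose plus five library-drug doses (not always all listed) in √10 steps.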

NCI-H1395 = test system: NCI-H1395
Summary of the method: as §1

NCI-H2087 = test system: NCI-H2087
Summary of the method: as §1

NCI-H1993 = test system: NCI-H1993
Summary of the method: as §1

NCI-H647 = test system: NCI-H647
Summary of the method: as §1

NCI-H3122 = test system: NCI-H3122
Summary of the method: as §1

NCI-H2342 = test system: NCI-H2342
Summary of the method: as §1

LXF-289 = test system: LXF-289
Summary of the method: as §1

CAL-12T = test system: CAL-12T
Summary of the method: as §1

HOP-62 = test system: HOP-62
Summary of the method: as §1

NCI-H650 = test system: NCI-H650
Summary of the method: as §1

LCLC-103H = test system: LCLC-103H
Summary of the method: as §1

NCI-H2023 = test system: NCI-H2023
Summary of the method: as §1

COR-L 105 = test system: COR-L 105
Summary of the method: as §1

SK-MES-1 = test system: SK-MES-1
Summary of the method: as §1

EPLC-272H = test system: EPLC-272H
Summary of the method: as §1

RERF-LC-KJ = test system: RERF-LC-KJ
Summary of the method: as §1

NCI-H596 = test system: NCI-H596
Summary of the method: as §1

COR-L23 = test system: COR-L23
Summary of the method: as §1

PC-14 = test system: PC-14
Summary of the method: as §1

NCI-H2085 = test system: NCI-H2085
Summary of the method: as §1

A-427 = test system: A-427
Summary of the method: as §1

NCI-H1975 = test system: NCI-H1975
Summary of the method: as §1

NCI-H2170 = test system: NCI-H2170
Summary of the method: as §1

Q: With `CCCCCCCCCCCC1=C(O)C(=O)C=C(O)C1=O` [Embelin] + O=C(c1cc(Cc2n[nH]c(=O)c3ccccc23)ccc1F)N1CCN(C(=O)C2CC2)CC1 [Olaparib] (partner 8 µM) as the compound, how does the relative viability (NCI-H1651; first compound 0.08 µM) read?
A: 0.201

Q: And the relative viability (NCI-H1651; first compound 0.8 µM)?
A: 0.166

Q: What about the relative viability (NCI-H1651; first compound 2.53 µM) of the same compound?
A: 0.166

Q: What about the relative viability (NCI-H1651; first compound 8 µM) of the same compound?
A: 0.191

Q: And the relative viability (NCI-H1395; first compound 0.08 µM)?
A: 0.539

Q: And the relative viability (NCI-H1395; first compound 0.8 µM)?
A: 0.486

Q: What about the relative viability (NCI-H1395; first compound 2.53 µM) of the same compound?
A: 0.461

Q: And the relative viability (NCI-H1395; first compound 8 µM)?
A: 0.443

Q: What about the relative viability (NCI-H2087; first compound 0.08 µM) of the same compound?
A: 0.649

Q: And the relative viability (NCI-H2087; first compound 0.8 µM)?
A: 0.729

Q: And the relative viability (NCI-H2087; first compound 2.53 µM)?
A: 0.688

Q: What about the relative viability (NCI-H2087; first compound 8 µM) of the same compound?
A: 0.607

Q: And the relative viability (NCI-H1993; first compound 0.08 µM)?
A: 1.16

Q: And the relative viability (NCI-H1993; first compound 0.8 µM)?
A: 1.07

Q: And the relative viability (NCI-H1993; first compound 2.53 µM)?
A: 1.21

Q: And the relative viability (NCI-H1993; first compound 8 µM)?
A: 1.6

Q: And the relative viability (NCI-H647; first compound 0.08 µM)?
A: 0.575

Q: What about the relative viability (NCI-H647; first compound 0.8 µM) of the same compound?
A: 0.67

Q: What about the relative viability (NCI-H647; first compound 2.53 µM) of the same compound?
A: 0.705

Q: And the relative viability (NCI-H647; first compound 8 µM)?
A: 0.678

Q: What about the relative viability (NCI-H3122; first compound 0.08 µM) of the same compound?
A: 0.646

Q: And the relative viability (NCI-H3122; first compound 0.8 µM)?
A: 0.603

Q: What about the relative viability (NCI-H3122; first compound 2.53 µM) of the same compound?
A: 0.609

Q: What about the relative viability (NCI-H3122; first compound 8 µM) of the same compound?
A: 0.671

Q: And the relative viability (NCI-H2342; first compound 0.08 µM)?
A: 0.482

Q: What about the relative viability (NCI-H2342; first compound 0.8 µM) of the same compound?
A: 0.432

Q: And the relative viability (NCI-H2342; first compound 2.53 µM)?
A: 0.459

Q: What about the relative viability (NCI-H2342; first compound 8 µM) of the same compound?
A: 0.427

Q: What about the relative viability (LXF-289; first compound 0.08 µM) of the same compound?
A: 1.06

Q: And the relative viability (LXF-289; first compound 0.8 µM)?
A: 1.17

Q: What about the relative viability (LXF-289; first compound 2.53 µM) of the same compound?
A: 1.26

Q: And the relative viability (LXF-289; first compound 8 µM)?
A: 1.14

Q: What about the relative viability (CAL-12T; first compound 0.08 µM) of the same compound?
A: 0.726

Q: And the relative viability (CAL-12T; first compound 0.8 µM)?
A: 0.727

Q: What about the relative viability (CAL-12T; first compound 2.53 µM) of the same compound?
A: 0.706

Q: What about the relative viability (CAL-12T; first compound 8 µM) of the same compound?
A: 0.677

Q: What about the relative viability (HOP-62; first compound 0.08 µM) of the same compound?
A: 0.29

Q: What about the relative viability (HOP-62; first compound 0.8 µM) of the same compound?
A: 0.253

Q: What about the relative viability (HOP-62; first compound 2.53 µM) of the same compound?
A: 0.354

Q: What about the relative viability (HOP-62; first compound 8 µM) of the same compound?
A: 0.451

Q: And the relative viability (NCI-H650; first compound 0.08 µM)?
A: 0.385

Q: What about the relative viability (NCI-H650; first compound 0.8 µM) of the same compound?
A: 0.407

Q: And the relative viability (NCI-H650; first compound 2.53 µM)?
A: 0.371

Q: What about the relative viability (NCI-H650; first compound 8 µM) of the same compound?
A: 0.381

Q: And the relative viability (LCLC-103H; first compound 0.08 µM)?
A: 0.762

Q: And the relative viability (LCLC-103H; first compound 0.8 µM)?
A: 0.796

Q: And the relative viability (LCLC-103H; first compound 2.53 µM)?
A: 0.802

Q: And the relative viability (LCLC-103H; first compound 8 µM)?
A: 0.764

Q: And the relative viability (NCI-H2023; first compound 0.08 µM)?
A: 0.432

Q: And the relative viability (NCI-H2023; first compound 0.8 µM)?
A: 0.455

Q: And the relative viability (NCI-H2023; first compound 2.53 µM)?
A: 0.509

Q: And the relative viability (NCI-H2023; first compound 8 µM)?
A: 0.229

Q: And the relative viability (COR-L 105; first compound 0.08 µM)?
A: 0.737

Q: And the relative viability (COR-L 105; first compound 0.8 µM)?
A: 0.611

Q: What about the relative viability (COR-L 105; first compound 2.53 µM) of the same compound?
A: 0.615

Q: And the relative viability (COR-L 105; first compound 8 µM)?
A: 0.573

Q: And the relative viability (SK-MES-1; first compound 0.08 µM)?
A: 0.757

Q: What about the relative viability (SK-MES-1; first compound 0.8 µM) of the same compound?
A: 0.815

Q: And the relative viability (SK-MES-1; first compound 2.53 µM)?
A: 0.802

Q: What about the relative viability (SK-MES-1; first compound 8 µM) of the same compound?
A: 0.214

Q: And the relative viability (EPLC-272H; first compound 0.08 µM)?
A: 0.845

Q: And the relative viability (EPLC-272H; first compound 0.8 µM)?
A: 0.924

Q: What about the relative viability (EPLC-272H; first compound 2.53 µM) of the same compound?
A: 0.752

Q: What about the relative viability (EPLC-272H; first compound 8 µM) of the same compound?
A: 1.14

Q: And the relative viability (RERF-LC-KJ; first compound 0.08 µM)?
A: 0.846

Q: What about the relative viability (RERF-LC-KJ; first compound 0.8 µM) of the same compound?
A: 0.956

Q: What about the relative viability (RERF-LC-KJ; first compound 2.53 µM) of the same compound?
A: 1.02

Q: And the relative viability (RERF-LC-KJ; first compound 8 µM)?
A: 0.48

Q: And the relative viability (NCI-H596; first compound 0.08 µM)?
A: 0.698

Q: What about the relative viability (NCI-H596; first compound 0.8 µM) of the same compound?
A: 0.707

Q: What about the relative viability (NCI-H596; first compound 2.53 µM) of the same compound?
A: 0.68

Q: What about the relative viability (NCI-H596; first compound 8 µM) of the same compound?
A: 0.762

Q: What about the relative viability (COR-L23; first compound 0.08 µM) of the same compound?
A: 0.373

Q: And the relative viability (COR-L23; first compound 0.8 µM)?
A: 0.352

Q: And the relative viability (COR-L23; first compound 2.53 µM)?
A: 0.348

Q: What about the relative viability (COR-L23; first compound 8 µM) of the same compound?
A: 0.346

Q: What about the relative viability (PC-14; first compound 0.08 µM) of the same compound?
A: 0.279

Q: And the relative viability (PC-14; first compound 0.8 µM)?
A: 0.264

Q: And the relative viability (PC-14; first compound 2.53 µM)?
A: 0.303

Q: What about the relative viability (PC-14; first compound 8 µM) of the same compound?
A: 0.26

Q: What about the relative viability (NCI-H2085; first compound 0.08 µM) of the same compound?
A: 0.727

Q: And the relative viability (NCI-H2085; first compound 0.8 µM)?
A: 0.73

Q: What about the relative viability (NCI-H2085; first compound 2.53 µM) of the same compound?
A: 0.842

Q: What about the relative viability (NCI-H2085; first compound 8 µM) of the same compound?
A: 0.777

Q: And the relative viability (A-427; first compound 0.08 µM)?
A: 0.765

Q: And the relative viability (A-427; first compound 0.8 µM)?
A: 0.872

Q: And the relative viability (A-427; first compound 2.53 µM)?
A: 0.792

Q: What about the relative viability (A-427; first compound 8 µM) of the same compound?
A: 0.524

Q: And the relative viability (NCI-H1975; first compound 0.08 µM)?
A: 0.887

Q: What about the relative viability (NCI-H1975; first compound 0.8 µM) of the same compound?
A: 0.779

Q: What about the relative viability (NCI-H1975; first compound 2.53 µM) of the same compound?
A: 0.932

Q: And the relative viability (NCI-H1975; first compound 8 µM)?
A: 0.904

Q: And the relative viability (NCI-H2170; first compound 0.08 µM)?
A: 0.569

Q: What about the relative viability (NCI-H2170; first compound 0.8 µM) of the same compound?
A: 0.554

Q: What about the relative viability (NCI-H2170; first compound 2.53 µM) of the same compound?
A: 0.586

Q: What about the relative viability (NCI-H2170; first compound 8 µM) of the same compound?
A: 0.592
